Species: Rattus norvegicus
Assay: DrugMatrix - Regimen: Daily Repeat
Assay type: toxicity, organism-based, Sprague-Dawley
Set-up: regimen Daily Repeat, gender Male, age 6-8 weeks
Conditions: in vivo, po, 70 mg/kg, route oral GAVAGE, dose level Low, vehicle 100 % WATER; for ABSOLUTE BASOPHIL / ABSOLUTE EOSINOPHIL / ABSOLUTE LYMPHOCYTE / ABSOLUTE MONOCYTE / ABSOLUTE SEGMENTED NEUTROPHIL / BASOPHIL / EOSINOPHIL / ERYTHROCYTE COUNT / HEMATOCRIT / HEMOGLOBIN / LEUKOCYTE COUNT / LYMPHOCYTE / MEAN CORPUSCULAR HEMOGLOBIN / MEAN CORPUSCULAR HEMOGLOBIN CONCENTRATION / MEAN CORPUSCULAR VOLUME / MONOCYTE / NEUTROPHIL / NUCLEATED RED BLOOD CELLS: tissue Blood; for ALANINE AMINOTRANSFERASE / ALBUMIN / ALKALINE PHOSPHATASE / ASPARTATE AMINOTRANSFERASE / BLOOD UREA NITROGEN / CARBON DIOXIDE / CHLORIDE / CHOLESTEROL / CREATINE PHOSPHOKINASE / CREATININE / LACTATE DEHYDROGENASE / LIPASE / PHOSPHORUS / POTASSIUM / SODIUM / TOTAL BILIRUBIN / TOTAL PROTEIN / URIC ACID: tissue Plasma

Question: Which “ABSOLUTE BASOPHIL” value (72 h, time 3 day) does the source give for `CN(C)CCCN1c2ccccc2CCc2ccc(Cl)cc21` [CLOMIPRAMINE] here?
Answer: 0 CELLS/uL

Question: And the “ABSOLUTE EOSINOPHIL” value (72 h, time 3 day)?
Answer: 0 CELLS/uL

Question: And the “ABSOLUTE LYMPHOCYTE” value (72 h, time 3 day)?
Answer: 11511.33 CELLS/uL

Question: And the “ABSOLUTE MONOCYTE” value (72 h, time 3 day)?
Answer: 50 CELLS/uL

Question: What about the “ABSOLUTE SEGMENTED NEUTROPHIL” value (72 h, time 3 day) of the same compound?
Answer: 672 CELLS/uL

Question: And the BASOPHIL (72 h, time 3 day)?
Answer: 0%

Question: What about the EOSINOPHIL (72 h, time 3 day) of the same compound?
Answer: 0%

Question: What about the “ERYTHROCYTE COUNT” value (72 h, time 3 day) of the same compound?
Answer: 5.82 x10E6/uL

Question: What about the HEMATOCRIT (72 h, time 3 day) of the same compound?
Answer: 36.17%

Question: And the HEMOGLOBIN (72 h, time 3 day)?
Answer: 14.27 G/DL

Question: What about the “LEUKOCYTE COUNT” value (72 h, time 3 day) of the same compound?
Answer: 12.23 x10E3/uL

Question: What about the LYMPHOCYTE (72 h, time 3 day) of the same compound?
Answer: 94%

Question: And the “MEAN CORPUSCULAR HEMOGLOBIN” value (72 h, time 3 day)?
Answer: 24.53 pg

Question: What about the “MEAN CORPUSCULAR HEMOGLOBIN CONCENTRATION” value (72 h, time 3 day) of the same compound?
Answer: 39.47 G/DL

Question: What about the “MEAN CORPUSCULAR VOLUME” value (72 h, time 3 day) of the same compound?
Answer: 62.17 fL

Question: And the MONOCYTE (72 h, time 3 day)?
Answer: 0.33%

Question: And the NEUTROPHIL (72 h, time 3 day)?
Answer: 5.67%

Question: What about the “NUCLEATED RED BLOOD CELLS” value (72 h, time 3 day) of the same compound?
Answer: 0.33 /100WBC

Question: What about the “ALANINE AMINOTRANSFERASE” value (72 h, time 3 day) of the same compound?
Answer: 52.33 u/L

Question: What about the ALBUMIN (72 h, time 3 day) of the same compound?
Answer: 4.17 G/DL

Question: What about the “ALKALINE PHOSPHATASE” value (72 h, time 3 day) of the same compound?
Answer: 458.67 u/L

Question: And the “ASPARTATE AMINOTRANSFERASE” value (72 h, time 3 day)?
Answer: 99 u/L

Question: And the “BLOOD UREA NITROGEN” value (72 h, time 3 day)?
Answer: 15.67 mg/dL

Question: And the “CARBON DIOXIDE” value (72 h, time 3 day)?
Answer: 24.67 mmol/L

Question: And the CHLORIDE (72 h, time 3 day)?
Answer: 101 MEQ/L

Question: And the CHOLESTEROL (72 h, time 3 day)?
Answer: 73 mg/dL

Question: What about the “CREATINE PHOSPHOKINASE” value (72 h, time 3 day) of the same compound?
Answer: 853.67 u/L

Question: And the CREATININE (72 h, time 3 day)?
Answer: 0.22 mg/dL

Question: And the “LACTATE DEHYDROGENASE” value (72 h, time 3 day)?
Answer: 317.67 u/L

Question: What about the LIPASE (72 h, time 3 day) of the same compound?
Answer: 9 u/L

Question: What about the PHOSPHORUS (72 h, time 3 day) of the same compound?
Answer: 13.47 mg/dL

Question: What about the POTASSIUM (72 h, time 3 day) of the same compound?
Answer: 6.22 MEQ/L

Question: And the SODIUM (72 h, time 3 day)?
Answer: 146.57 MEQ/L

Question: And the “TOTAL BILIRUBIN” value (72 h, time 3 day)?
Answer: 0.27 mg/dL

Question: And the “TOTAL PROTEIN” value (72 h, time 3 day)?
Answer: 6.07 G/DL

Question: And the “URIC ACID” value (72 h, time 3 day)?
Answer: 1.93 mg/dL

Question: What about the “ABSOLUTE BASOPHIL” value (120 h, time 5 day) of the same compound?
Answer: 0 CELLS/uL

Question: What about the “ABSOLUTE EOSINOPHIL” value (120 h, time 5 day) of the same compound?
Answer: 39.67 CELLS/uL

Question: What about the “ABSOLUTE LYMPHOCYTE” value (120 h, time 5 day) of the same compound?
Answer: 12212 CELLS/uL

Question: And the “ABSOLUTE MONOCYTE” value (120 h, time 5 day)?
Answer: 206.67 CELLS/uL

Question: What about the “ABSOLUTE SEGMENTED NEUTROPHIL” value (120 h, time 5 day) of the same compound?
Answer: 1075 CELLS/uL

Question: And the BASOPHIL (120 h, time 5 day)?
Answer: 0%

Question: And the EOSINOPHIL (120 h, time 5 day)?
Answer: 0.33%

Question: And the “ERYTHROCYTE COUNT” value (120 h, time 5 day)?
Answer: 6.52 x10E6/uL

Question: And the HEMATOCRIT (120 h, time 5 day)?
Answer: 41.7%

Question: And the HEMOGLOBIN (120 h, time 5 day)?
Answer: 15.97 G/DL

Question: And the “LEUKOCYTE COUNT” value (120 h, time 5 day)?
Answer: 13.53 x10E3/uL

Question: And the LYMPHOCYTE (120 h, time 5 day)?
Answer: 90.33%

Question: What about the “MEAN CORPUSCULAR HEMOGLOBIN” value (120 h, time 5 day) of the same compound?
Answer: 24.53 pg

Question: And the “MEAN CORPUSCULAR HEMOGLOBIN CONCENTRATION” value (120 h, time 5 day)?
Answer: 38.27 G/DL

Question: What about the “MEAN CORPUSCULAR VOLUME” value (120 h, time 5 day) of the same compound?
Answer: 64.07 fL

Question: What about the MONOCYTE (120 h, time 5 day) of the same compound?
Answer: 1.33%

Question: What about the NEUTROPHIL (120 h, time 5 day) of the same compound?
Answer: 8%

Question: What about the “NUCLEATED RED BLOOD CELLS” value (120 h, time 5 day) of the same compound?
Answer: 1 /100WBC

Question: And the “ALANINE AMINOTRANSFERASE” value (120 h, time 5 day)?
Answer: 54 u/L

Question: What about the ALBUMIN (120 h, time 5 day) of the same compound?
Answer: 4.67 G/DL

Question: What about the “ALKALINE PHOSPHATASE” value (120 h, time 5 day) of the same compound?
Answer: 417.67 u/L

Question: And the “ASPARTATE AMINOTRANSFERASE” value (120 h, time 5 day)?
Answer: 75.33 u/L

Question: And the “BLOOD UREA NITROGEN” value (120 h, time 5 day)?
Answer: 13.33 mg/dL

Question: What about the “CARBON DIOXIDE” value (120 h, time 5 day) of the same compound?
Answer: 27.67 mmol/L

Question: What about the CHLORIDE (120 h, time 5 day) of the same compound?
Answer: 100.33 MEQ/L

Question: And the CHOLESTEROL (120 h, time 5 day)?
Answer: 74 mg/dL

Question: And the “CREATINE PHOSPHOKINASE” value (120 h, time 5 day)?
Answer: 213 u/L

Question: And the CREATININE (120 h, time 5 day)?
Answer: 0.2 mg/dL

Question: What about the “LACTATE DEHYDROGENASE” value (120 h, time 5 day) of the same compound?
Answer: 196.67 u/L

Question: What about the LIPASE (120 h, time 5 day) of the same compound?
Answer: 8.67 u/L

Question: What about the PHOSPHORUS (120 h, time 5 day) of the same compound?
Answer: 12.07 mg/dL

Question: What about the POTASSIUM (120 h, time 5 day) of the same compound?
Answer: 6.7 MEQ/L

Question: What about the SODIUM (120 h, time 5 day) of the same compound?
Answer: 146.33 MEQ/L

Question: And the “TOTAL BILIRUBIN” value (120 h, time 5 day)?
Answer: 0.2 mg/dL

Question: And the “TOTAL PROTEIN” value (120 h, time 5 day)?
Answer: 6.57 G/DL

Question: What about the “URIC ACID” value (120 h, time 5 day) of the same compound?
Answer: 1.57 mg/dL

— ChEMBL document CHEMBL3885881, “DrugMatrix”
